Test [1] has as its system mouse melanoma B16F10. The class given is in vivo. The note with it: 15 days. On the procedure: (1) 43 8-week-old female C57B/L mice were selected and divided into 5 cages. One preserved B16F10 tumor-bearing female C57L mouse was sacrificed by cervical dislocation. 75% alcohol was sprayed on the skin of the mouse in a laminar flow cabinet, and the tumor tissue of the tumor-bearing mouse was separated by sterilized surgical instruments and cut into a sterilized 5 mL homogenizer with ophthalmic scissors. The tumor tissue was slowly milled on ice to form a tumor fluid. The number of cells was 6.85 × 10^7 cells/mL as counted with a BioRad counting instrument. The tumor fluid was placed in an Erlenmeyer flask in an ice bath for later use. The tumor fluid was evenly aspirated using a 1 mL sterile syringe and inoculated 0.2 mL/C57/L mouse. After the inoculation was completed, the mice continued to be fed under the initial feeding conditions.
(2) Animal grouping and administration: On the second day after tumor fluid inoculation of C57B/L mice, 43 mice were randomly grouped: 10 mice in a control group, 8 mice in a Compound 4-20 mg/kg group, 8 mice in a Compound 4-30 mg/kg group, 8 mice in a Compound 4-40 mg/kg group, and 9 mice in a positive control drug cyclophosphamide CTX-100 mg/kg group. The mice were weighed and administered.
(3) Drug preparation: The corresponding amounts of the drugs were weighed according to the final concentrations of the experimental groups. The drugs of the Compound 4-20 mg/kg group and the Compound 4-30 mg/kg group were prepared with 0.25% CMCNa + Tween 80 and administered orally once a day. The drug of Compound 4-40 mg/kg was prepared with normal saline + Tween 80 and administered intraperitoneally. CTX was prepared with normal saline and administered intraperitoneally once. The mice in the control group were given 0.25% CMCNa solution orally.
(4) The animals were sacrificed, and the tumors were separated and weighed. The animals in each group were treated immediately 1 h after administration on the last day and weighed, and the tumor tissue was weighed.

Test [2] has as its target T1, LAG3/MHCII (Homo sapiens, UniProt P18627).
T1 sequence (P18627 23-450 limits assumed): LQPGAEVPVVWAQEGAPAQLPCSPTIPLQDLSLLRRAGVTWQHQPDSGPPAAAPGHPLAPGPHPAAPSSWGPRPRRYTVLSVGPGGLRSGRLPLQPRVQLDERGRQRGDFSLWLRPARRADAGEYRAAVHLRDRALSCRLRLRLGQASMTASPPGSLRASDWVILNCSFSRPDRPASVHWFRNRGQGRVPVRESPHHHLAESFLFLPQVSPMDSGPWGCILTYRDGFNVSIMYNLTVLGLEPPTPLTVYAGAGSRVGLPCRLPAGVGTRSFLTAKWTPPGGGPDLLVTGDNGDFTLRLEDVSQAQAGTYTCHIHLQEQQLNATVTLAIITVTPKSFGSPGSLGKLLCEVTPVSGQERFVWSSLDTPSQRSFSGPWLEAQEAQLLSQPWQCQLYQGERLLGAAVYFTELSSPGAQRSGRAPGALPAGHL
In words: HTRF binding inhibition of LAG3 and its ligand MHCII. The note with it: binding inhibition LAG3/MHCII. (In general: Time-resolved FRET reads energy transfer from a long-lived donor to a nearby acceptor.)

The target of test [3] is T2, LAG3/FGL1 (Homo sapiens, UniProt P18627).
T2 sequence (P18627 23-450 limits assumed): T1 sequence (P18627 23-450 limits assumed)
In words: HTRF binding inhibition of LAG3 and its ligand FGL1. The note with it: Table 2; read-out: IC50 value for inhibiting LAG3/FGL1 interaction. As for the experimental part:
Reagent preparation: ① Tag1-LAG3 protein: a protein solution with a concentration of 50 nM (20 µL with a final system concentration of 10 nM) was prepared using a diluent. ② Tag2-FGL1 protein: a protein solution with a concentration of 100 nM (20 µL with a final system concentration of 20 nM) was prepared using a diluent. ③ Anti-Tag1-Tb: a 100× stock solution was diluted with a detection buffer to a 1 × stock solution. ④ Anti-Tag2-XL665: a 100× stock solution was diluted with a detection buffer to a 1 × stock solution.
Assay step: (1) 2 µL of compound solution (with a concentration to be measured of 10×) was added to a 384-well opaque plate having a white background, 4 µL of Tag1-LAG3 protein and 4 µL of Tag2-FGL1 protein were added, respectively, and the plate was incubated at room temperature for 15 min; (2) Anti-Tag1-Tb and Anti-Tag2-XL665 were mixed at a ratio of 1:1 in advance, and 10 µL of mix solution was added to each well; (3) the plate was gently mixed, sealed, and incubated at room temperature for 1 h or overnight before detection.

Where [4] appears, read: B16F10, 40 mg/kg, table prints po, text says intraperitoneally.

Read-outs that look alike come from different tables or passages of the source.

As for `CCCCCCOc1ccc2cc1-c1cc(ccc1OCCCCCC)C(=O)CCCCCC2=O` [Compound 4], the Inhibition rate was 55.12% in test [1] (B16F10, 20 mg/kg po once a day); 28.00% in test [1] (B16F10, 30 mg/kg po once a day); 44.40% in test [1] (setting [4]). For the same compound, the Tumor weight stood at 1.304 ± 0.623 g in test [1] (B16F10, 20 mg/kg po once a day); 2.091 ± 1.199 g in test [1] (B16F10, 30 mg/kg po once a day); 1.615 ± 0.495 g in test [1] (setting [4]). The compound further registered an IC50 in test [2] of 18 µM.
On to `CCCCCCOc1ccc(C(=O)O)cc1-c1cc(C(=O)NCCCCNC(=O)C(F)(F)F)ccc1OCCCCCC` [Compound 8], for which the results for the IC50 in test [2] and in test [3] were 8.34 µM and 10 µM, respectively.

The values above are taken from patent EP4527828A1, “BIPHENYL COMPOUND, PHARMACEUTICAL COMPOSITION, METHOD FOR PREPARING SAME, AND USE THEREOF” (Longivitron (Suzhou) Biotechnology Co., Ltd, priority 2022, dated 2023).
